Measured values reported in ChEMBL document CHEMBL3045109, “Inhibitory effect of bionic fungicide 2-allylphenol on Botrytis cinerea (Pers. ex Fr.) in vitro” (Pest Manag Sci, 2009).
In brackets after ≈: the same amount, converted by molar mass. Activity calls are given as the source filed them. The rule behind the calls is not given here.

How the values were obtained:
Botrytis cinerea [1] = test: Fungicidal activity against Botryotinia fuckeliana grown on PDA medium assessed as inhibition of mycelial growth incubated for 4 to 7 days at 25 degC in presence of 10 mg/L mitochondrial alternative oxidase inhibitor, SHAM; assay type: functional, organism-based
Botrytis cinerea [2] = test: Fungicidal activity against Botryotinia fuckeliana grown on YgA medium assessed as inhibition of mycelial growth incubated for 4 days in the dark at 25 degC in presence of fermentable carbon source, glucose; assay type: functional, organism-based; conditions: 96 h
Botrytis cinerea [3] = test: Fungicidal activity against Botryotinia fuckeliana grown on YGA medium assessed as inhibition of mycelial growth incubated for 4 days in the dark at 25 degC in presence of non-fermentable carbon source, glycerol; assay type: functional, organism-based; conditions: 96 h
Botrytis cinerea [4] = test: Depletion of ATP content in Botryotinia fuckeliana mycelium at 80 mg/L after 24 to 48 hr by reverse phase HPLC analysis; assay type: functional, organism-based
Botrytis cinerea [5] = test: Depletion of ATP content in Botryotinia fuckeliana mycelium at 80 mg/L after 6 hr by reverse phase HPLC analysis; assay type: functional
Botrytis cinerea [6] = test: Inhibition of respiratory activity in Botryotinia fuckeliana mycelium assessed as rate of oxygen consumption at 100 mg/L by Clark-type oxygen electrode recording analysis in presence of succinate and 2 mM mitochondrial alternative oxidase inhibitor, SHAM; assay type: functional
Botrytis cinerea [7] = test: Inhibition of respiratory activity in Botryotinia fuckeliana mycelium assessed as rate of oxygen consumption at 100 mg/L by Clark-type oxygen electrode recording analysis in presence of glucose and 2 mM mitochondrial alternative oxidase inhibitor, SHAM; assay type: functional
Botrytis cinerea [8] = test: Fungistatic activity against Botryotinia fuckeliana grown in liquid medium assessed as increase in mycelium dry weight at 80 mg/L incubated for 24 hr prior to transferring mycelium to drug-free MYS medium measured after 12 hr; assay type: functional
Botrytis cinerea [9] = test: Fungistatic activity against Botryotinia fuckeliana grown in liquid medium assessed as increase in mycelium dry weight at 80 mg/L incubated for 24 hr prior to transferring mycelium to drug-free MYS medium measured after 6 hr; assay type: functional
Botrytis cinerea [10] = test: Fungicidal activity against Botryotinia fuckeliana grown in liquid medium assessed as inhibition of mycelial growth at 80 mg/L after 12 hr; assay type: functional, organism-based
Botrytis cinerea [11] = test: Fungicidal activity against Botryotinia fuckeliana grown in liquid medium assessed as inhibition of mycelial growth after 24 hr; assay type: functional, organism-based
Botrytis cinerea [12] = test: Depletion of total adenylate pool in Botryotinia fuckeliana mycelium at 80 mg/L after 24 to 48 hr by reverse phase HPLC analysis; assay type: functional, organism-based
Botrytis cinerea [13] = test: Inhibition of respiratory activity in Botryotinia fuckeliana mycelium assessed as decrease in rate of oxygen consumption at 100 mg/L by Clark-type oxygen electrode recording analysis in presence of succinate (reference value: 0%); assay type: functional
Botrytis cinerea [14] = test: Inhibition of respiratory activity in Botryotinia fuckeliana mycelium assessed as decrease in rate of oxygen consumption at 100 mg/L by Clark-type oxygen electrode recording analysis in presence of glucose (reference value: 0%); assay type: functional
Botrytis cinerea [15] = test: Induction of respiratory activity in Botryotinia fuckeliana mycelium assessed as rate of oxygen consumption at 10 mg/L after 2 min by Clark-type oxygen electrode recording analysis; assay type: functional
Botrytis cinerea [16] = test: Inhibition of respiratory activity in Botryotinia fuckeliana mycelium assessed as rate of oxygen consumption at 100 mg/L after 2 min by Clark-type oxygen electrode recording analysis; assay type: functional
Botrytis cinerea [17] = test: Inhibition of respiratory activity in Botryotinia fuckeliana mycelium assessed as decrease in rate of oxygen consumption at 2 mM by Clark-type oxygen electrode recording analysis in presence of succinate (reference value: 0%); assay type: functional
Botrytis cinerea [18] = test: Inhibition of respiratory activity in Botryotinia fuckeliana mycelium assessed as decrease in rate of oxygen consumption at 2 mM by Clark-type oxygen electrode recording analysis in presence of glucose (reference value: 0%); assay type: functional
Botrytis cinerea [19] = test: Inhibition of respiratory activity in Botryotinia fuckeliana mycelium assessed as decrease in rate of oxygen consumption at 20 uM by Clark-type oxygen electrode recording analysis in presence of succinate and 2 mM mitochondrial alternative oxidase inhibitor, SHAM (reference value: 0%); assay type: functional
Botrytis cinerea [20] = test: Inhibition of respiratory activity in Botryotinia fuckeliana mycelium assessed as decrease in rate of oxygen consumption at 20 uM by Clark-type oxygen electrode recording analysis in presence of glucose and 2 mM mitochondrial alternative oxidase inhibitor, SHAM (reference value: 0%); assay type: functional
Botrytis cinerea [21] = test: Inhibition of respiratory activity in Botryotinia fuckeliana mycelium assessed as decrease in rate of oxygen consumption at 20 uM by Clark-type oxygen electrode recording analysis in presence of succinate (reference value: 0%); assay type: functional
Botrytis cinerea [22] = test: Inhibition of respiratory activity in Botryotinia fuckeliana mycelium assessed as decrease in rate of oxygen consumption at 20 uM by Clark-type oxygen electrode recording analysis in presence of glucose (reference value: 0%); assay type: functional

C=CCc1ccccc1O [2-ALLYLPHENOL]
growth inhibition (GI) (Botrytis cinerea [1]): Active
EC50 (Botrytis cinerea [2]): 22.9 µg/mL
EC50 (Botrytis cinerea [3]): 7.1 µg/mL
inhibition (Botrytis cinerea [4]): Active
inhibition at 80 µg/mL (Botrytis cinerea [5]): 70%
inhibition (INH) (Botrytis cinerea [6]): 100%
inhibition (INH) (Botrytis cinerea [7]): 100%
fold change (FC) (Botrytis cinerea [8]): 1.7
fold change (FC) (Botrytis cinerea [9]): 0.9
inhibition (Botrytis cinerea [10]): Active
EC50 (Botrytis cinerea [11]): 25.4 µg/mL (≈ 189 µM)
inhibition (Botrytis cinerea [12]): Active
inhibition at 100 µg/mL (Botrytis cinerea [13]): 48%
inhibition at 100 µg/mL (Botrytis cinerea [14]): 46%
Activity (Botrytis cinerea [15]): 30%
inhibition at 100 µg/mL (Botrytis cinerea [16]): 60%

O=C(NO)c1ccccc1O [SALICYLHYDROXAMIC ACID]
inhibition at 2000 µM (Botrytis cinerea [17]): 32%
inhibition at 2000 µM (Botrytis cinerea [18]): 45%

CCCCCC[C@H]1C(=O)O[C@H](C)[C@H](NC(=O)c2cccc(NC=O)c2O)C(=O)O[C@@H](C)[C@@H]1OC(=O)CC(C)C [ANTIMYCIN A]
inhibition (INH) (Botrytis cinerea [19]): 100%
inhibition (INH) (Botrytis cinerea [20]): 100%
inhibition at 20 µM (Botrytis cinerea [21]): 55%
inhibition at 20 µM (Botrytis cinerea [22]): 77%
